Here are results for eight compounds from US20260193672A1, “INDUCIBLE CELL SUICIDE SWITCHES AND THEIR USE IN CELL AND GENE THERAPIES” (The General Hospital Corporation, priority 2022, published 2026).

A value given as a limit tells only on which side of the number the result lay.

The test system of data set [1] is Jurkat cells. Kind of data set: Loss of BFP+ cells with three degron tags fused to ICAD. The settings on record: 48 hours of exposure to controller drug; SMASH tag, dTAG or IKZF3 degron fused to ICAD. The data set is classed as cell-based. The procedure:
(§1) Unless otherwise indicated, cell death assays with Jurkat or primary human T cells were performed by 48 hour incubation with the relevant drug and flow cytometry analysis for the marker of transduction.
To determine whether the ICAD-degron CAD suicide switch design is generalizable to multiple degron systems, three different degron tags (SMASH, dTag, superdegron) were fused to ICAD to facilitate ICAD degradation.

The test system of data set [2] is Jurkat cells expressing the switch. Kind of data set: DNA damage assay (gamma-H2AX intracellular flow). In kind it is cell-based. An excerpt:
To determine whether promoter strength modifies ICADdegron-CAD suicide switch efficiency, Jurkat cells were transduced to express the ICAD-degron 2A CAD p.R11W suicide switch was expressed, driven by an EF1alpha or PGK promoter.

In data set [3] the test system is ICAD-degron/CAD suicide switch-positive primary human T cells. Nature of the data set: Depletion of ICAD-degron/CAD suicide switch-positive T cells. In kind it is cell-based. To be noted: 1 uM lenalidomide treatment. The procedure:
as §1
Control of CAR T cell function with a lenalidomide suicide switch was also evaluated.

Data set [4] relates to NALM6 tumor cells. Nature of the data set: Incucyte live cell imaging co-culture assay, tumor cell cytolysis. In kind it is cell-based. The procedure:
(§2) On day −1, tissue culture plates were coated with anti-CD71 antibody diluted in PBS. On day 0, the plates were washed with PBS and then Nalm6-luciferase-GFP cells were added to the coated plates. Four hours later, primary human CAR T cells were added at a 1:1 ratio with the Nalm6 cells. Plates were imaged every hour for at least 90 hours ([…] ZOOM, live-cell analysis system). Total green, red, and blue object areas were collected, indicative of GFP+ tumor and mCherry+/mTagBFP2+ CAR and/or suicide switch T cell area.
Tumor cell cytolysis was evaluated by Incucyte live cell imaging co-culture assay with NALM6 tumor cells.
We also generated a tri-cistronic suicide switch CAR lentivector. The same Incucyte live cell imaging co-culture assay with NALM6 tumor cells and single lentivector ICAD-degron/CAD/CAR was performed in primary human T cells. […] With lenalidomide, anti-tumor cytolysis was prevented.

For data set [5], the system named is suicide switch CAR T cells. Nature of the data set: Incucyte live cell imaging co-culture assay, CAR T cell proliferation. In kind it is cell-based, human. The procedure: as §2
In summary, the suicide switch can be used to deplete CAR T cells (FIG. 6E).

For data set [6], the system named is cells transduced to express pairs of BCL-xL and variants of PUMA. Nature of the data set: Growth and survival of cells expressing BCL-xL and PUMA variants fused to 913iK0. The settings on record: BCL-xL and PUMA variants fused to E3 recruitment domain 913iK0. The data set is classed as cell-based. As to the method: Pairs of pro/anti-apoptotic proteins were evaluated for their ability to work as an effective suicide switch. BCL-xL and BIM transgene pairs were toxic to Jurkat cells transduced to express these lentiviruses, as assessed by total cell number 48 hours after high-titer transduction, see FIG. 1A. […] In this design, the goal was for the pro-apoptotic protein PUMA to bind endogenous anti-apoptotic proteins, and for drug-dependent recruitment to the E3 to result in anti-apoptotic protein ubiquitination, degradation, and cell death.

For data set [7], the system named is cells expressing ICAD-degron/CAD. Kind of data set: Cell depletion by ICAD-degron/CAD lenalidomide-inducible suicide switch (summary statement). The data set is classed as cell-based. The settings on record: lenalidomide-induced, subtherapeutic lenalidomide concentrations. The procedure: as §1
For data set [8], the system named is primary human CAR T cells. Nature of the data set: Competitive proliferation assay of suicide switch-transduced versus untransduced cells. In kind it is cell-based. The settings on record: without lenalidomide. An excerpt: Cells were stimulated weekly with an equal number of irradiated K562 cells transduced to express CD3 and CD28 scFvs. Flow cytometry was used to enumerate the percentage of mTagBFP2+ cells on days 0, 7, and 14.

Data set [9] relates to primary human T cells. Kind of data set: Cell depletion, CAD/ICAD versus iCasp9 suicide switch, head-to-head. To be noted: dose ranges of lenalidomide and AP1903, normalized to untreated cells. The data set is classed as cell-based. The procedure:
as §1

Data set [10] concerns Jurkat cells. Nature of the data set: Competitive growth assay of modified lenalidomide suicide switches. The settings on record: for cell viability, normalized fluorescence: in the absence of lenalidomide, normalized to % transduced on day 0. In kind it is cell-based. An excerpt:
To assess whether further modification of CAD could further enhance the suicide switch, we performed structural modeling of CAD, identifying side chain interactions with R11 and W 11 in the mutant form.

The subject of data set [11] is primary human T cell. Nature of the data set: Four-day growth assay. The data set is classed as cell-based. The settings on record: compared with other CAD sequences and vector control. The procedure: To test whether variations in CAD modify the performance of CAD/ICAD suicide switch, a primary human T cell four-day growth assay was performed comparing vector control, and then three modifications of ICAD-degron 2A CAD expression, differentiated by the CAD sequences.

`CC[C@H](C(=O)N1CCCC[C@H]1C(=O)O[C@H](CCc1ccc(OC)c(OC)c1)c1ccccc1OCC(=O)NCCCCCCOc1cccc2c1C(=O)N(C1CCC(=O)NC1=O)C2=O)c1cc(OC)c(OC)c(OC)c1` (stereo partly drawn) [dTAG-13, 1-[(2S)-1-Oxo-2-(3,4,5-trimethoxyphenyl)butyl]-(2S)-2-piperidinecarboxylate (1R)-3-(3,4-dimethoxyphenyl)-1-[2-[2-[[6-[[2-(2,6-dioxo-3-piperidinyl)-2,3-dihydro-1,3-dioxo-1H-isoindol-4-yl]oxy]hexyl]amino]-2-oxoethoxy]phenyl]propyl ester]: the “drug-dependent cell depletion (loss of BFP+ cells)” value in data set [1] is reported as “allowed for drug-dependent cell depletion”.

`Nc1nc(O)c2ncn(COC(CO)CO)c2n1` [ganciclovir]: the “drug-dependent cell depletion (loss of BFP+ cells)” value in [1] is “but not the SMASH tag, allowed for drug-dependent cell depletion”.

For `Nc1cccc2c1CN(C1CCC(=O)NC1=O)C2=O` (stereo not drawn) [lenalidomide], the “time in which DNA damage sensing occurred” value in data set [2] (gamma-H2AX, timecourse after 1000 nM lenalidomide addition) is on record as “within one hour”. Moreover, in [3], the “depletion of suicide switch-positive primary human T cells” value is reported as “successful depletion”. Besides, the “effect on tumor cell depletion by suicide switch CAR T cells” value in data set [4] (16 hour delayed lenalidomide, dual-vector CAR T cells) is reported as “ablated tumor cell depletion”. The “effect on tumor cell cytolysis by suicide switch CAR T cells” value in [4] (immediate lenalidomide, dual-vector CAR T cells) is “prevented tumor cell cytolysis”. Moreover, the “effect on anti-tumor cytolysis, single lentivector ICAD-degron/CAD/CAR T cells” value in [4] (with lenalidomide) is reported as “prevented”. Further, in data set [5] (after 16 hour delayed lenalidomide, without rebound), the “time to depletion of the CAR T cells” value was at most 24 h. Besides, in data set [5] (immediate lenalidomide), the “effect on suicide switch CAR T cell expansion” value is “prevented suicide switch CAR T cell expansion”. Also, the “drug-dependent cell depletion (loss of BFP+ cells)” value in data set [1] is given as “allowed for drug-dependent cell depletion”. Besides, the “effect on growth and survival of cells” value in [6] is “did not alter the growth and survival”. In data set [7], this compound had a cell depletion of over 90%.

For “ICAD-degron 2A CAD p.R11W: multicistronic transgene: C-terminally degron-tagged human ICAD, 2A, human CAD p.R11W (SEQ ID NO: 19/20)”, the “DNA damage response by promoter strength” value in data set [2] (Jurkat cells, EF1alpha promoter compared with PGK promoter) is “enhanced DNA damage response”. In addition, the “T cell proliferation in competition with untransduced cells, compared with control” value in data set [8] is recorded as “comparable”. The “cell killing compared with iCasp9 switch” value in [9] is on record as “more complete cell killing”. Further, in data set [10], the “cell viability, normalized fluorescence” value was “improved cell viability”. The drug-independent cell fitness result in data set [11] was “enhanced drug-independent cell fitness”. In addition, the cell depletion in [7] is over 90%.

As for “ICAD-degron-CADp.R11A: suicide switch transgene with CAD p.R11A (SEQ ID NO: 23/24)”, the “cell viability, normalized fluorescence” value in data set [10] is “improved cell viability”.

On to “ICAD-degron-CADp.R11W/E68A: suicide switch transgene with CAD p.R11W/E68A (SEQ ID NO: 29/30)”, for which, in data set [10], the “cell viability, normalized fluorescence” value is reported as “improved cell viability”.

For the compound “ICAD-degron-CADp.R11W/K18A: suicide switch transgene with CAD p.R11W/K18A (SEQ ID NO: 27/28)”, the “cell viability, normalized fluorescence” value in data set [10] is recorded as “improved cell viability”. In addition, the cell depletion entry in [10] (with 1 uM lenalidomide) is listed as “efficient cell depletion”. Besides, the drug-independent competitive growth result in data set [10] (without lenalidomide) is “most improved”.

Regarding “ICAD-degron-CADp.Y49W: suicide switch transgene with CAD p.Y49W (SEQ ID NO: 25/26)”, in data set [10], the “cell viability, normalized fluorescence” value is “improved cell viability”.
